{"source": "patent US8389468B2", "about": "“Approach to the treatment of compartment syndrome” (Lantmannen AS-Faktor AB, priority 2006, dated 2013)", "key": {"[1]": {"test_system": "Staphylococcus areus (SA; strain LS1) infected joints", "assay": "Arthritis by arthritogenic Staphylococcus areus (strain LS1), joint pressure", "format": "in vivo, rat", "from_the_text": "Joints are enclosed by tender, noncompliant collagen capsules, further characterised by low elasticity but plasticity. At arthritis, the pressure in the synovial fluid in the joint cavity turns elevated, and inflammation adds to the symptoms. A CS is prevalent. In order to investigate if treatment with AF-16 could prevent or at least reduce the development of such a CS, adult rats were infected by systemic injection of a solution of an arthritogenic Staphylococcus areus (SA; strain LS1). One group of animals (n=3) were treated with AF-16 while a second group of rats (n=3) just received the vehicle, PBS. After a few days the knee joints and later on additional limb and foot joints turned tender, swollen and got elevated pressure in the joint cavities, as measured with the Samba Fibre Optic Pressure probe (Samba System 3200 & Samba Preclin 420 sensor; Samba Sensors AB, Gruvgatan 6, SE 42130 V. Frolunda, Sweden), as well as in the immediately surrounding tissue. The pressure in a normal synovial large joint is 0-5 mm Hg, but could increase more than five-fold in infected, inflamed joints. The interstitial fluid pressure in the subcutaneous tissue at a distance from the infected joint was measured for comparison and found to remain within normal limits, ±2 mm Hg. […] Infected animals, which only received treatment with the vehicle, PBS, developed CS of with time increasing severity."}, "pericardium": {"test_system": "pericardium", "assay": "Traumatized pericardium, fluid accumulation", "format": "in vivo, rat", "conditions": "treated for a week after rubbing of pericardium", "from_the_text": "Adult rats had experimentally a CC condition induced affecting the pericardium and assessed with regard to effects of treatment with the peptide AF-16. The pericardial cavity is delimiting the heart, forming a sac filled with a minimal volume of fluid, enabling accommodation of the sliding movements resulting from the sudden and forceful contractions of the heart. The pericardial cavity is towards its periphery enclosed by a parietal membrane rich in collagen. On anaesthetized rats the pericardium was opened surgically, through a small “window” in the diaphragm and mediastinum. The inside of the pericardium was traumatized by rubbing it surgically through the incision. These animals were divided in two groups, one treated with AF-16 while the other had just the vehicle, PBS. […] In contrast, those animals that after the rubbing had been treated with the vehicle had their pericardium filled with fluid under pressure, and had further numerous fibrin strands and inflammatory cells. Additionally, the parietal pericardial envelop was swollen, inflamed and infiltrated by numerous enlarged, in parts newly formed blood vessels."}}, "data": [{"sequence": "VCHSKTRSNPENNVGL [AF-16]", "values": [{"measurement": "joint tenderness, swelling, pain", "setting": "[1]; SA infected large joint", "result": "did not have that tender, swollen and painful joints"}, {"measurement": "pressure in the infected joint", "setting": "[1]; SA infected large joint, n=3, normal joint 0-5 mm Hg", "result": "close to normal pressure in the joint"}, {"measurement": "number of S. areus in synovial fluid, treated vs not", "setting": "[1]; larger joints", "result": "about the same"}, {"measurement": "fluid in pericardial cavity", "setting": "pericardium", "result": "just minor accumulation of fluid in their pericardial cavity, at low pressure"}]}]}
